Key:
Experiment in all cases: Cell viability assay (CCK-8), IC50
Assay type in all cases: cell-based
MDA-MB-231 cells = conditions: Homo sapiens, 6 days, medium replenished every 2 days
Procedure: (§1) Human breast cancer cell lines MDA-MB-231 and SUM-159, and human ovarian cancer cell lines OVCAR5 and SKOV3 were obtained from the American Type Culture Collection (ATCC). MDA-MB-231 cells were cultured in L-15 medium with 10% fetal bovine serum (FBS), incubated at 37 °C in a humidified incubator without additional CO2. SUM-159 cells were maintained in Dulbecco’s modified Eagle’s medium (DMEM) containing 10% FBS, and OVCAR5 and SKOV3 cells were incubated in Roswell Park Memorial Institute (RPMI)-1640 medium with 10% FBS and cultured at 37 °C in a humidified incubator containing 5% CO2.
(§2) Cell viability assay was performed as described before. Briefly, 2500/well of breast or ovarian cancer cells were seeded into a 96-well plate; grown overnight; treated with indicated concentration of Olaparib, LY2835219, ZC22, LP-1, GC-24, or cisplatin alone or together for an indicated amount of time; and then incubated with Cell Counting kit-8 (CCK-8) substrate (Dojindo, Kumamoto, Kyushu Island, Japan) for 1–2 h at 37 °C. Cell viability was calculated by the absorbance at 450 nm measured by the GloMax Explorer (Promega, Madison, WI, USA). Cells without treatment were set as 100%, and medium control (no cells) was set as 0%.
(§3) Figure 1 Synthesis strategy and activity assay of the novel compounds targeting both PARP and CDK4/6. (A) Synthesis strategy of the three novel compounds GC-24, LP-1, and ZC-22. (B) IC50 of GC-24, LP-1, and ZC-22 in breast and ovarian cancer cells. Cells were treated with increasing concentrations of GC-24, LP 1, or ZC-22 for 6 days with replenishment of medium every 2 days. Cell proliferation was analyzed by CCK-8 assays. (C) The reagents and conditions used for the chemical synthesis of ZC-22 in this study: (a) Pd(AcO)2, BINAP, CS2CO3, 1,4-Dioxane, 100 °C, 12 h; (b) CF3COOH, DCM, Room temperature, 6 h; (c) HOBt, EDCI, DIPEA, DMF, Room temperature, 12 h. TEXT PRINTED IN THE PICTURE: (B) LP-1: MDA-MB-231 IC50 (μM): >50; SUM-159 IC50 (μM): 7.780; OVCAR5 IC50 (μM): 10.11; SKOV3 IC50 (μM): 10.16 | (B) GC-24: MDA-MB-231 IC50 (μM): 33.77; SUM-159 IC50 (μM): 17.77; OVCAR5 IC50 (μM): 26.08; SKOV3 IC50 (μM): >50 | (B) ZC-22: MDA-MB-231 IC50 (μM): 3.608; SUM-159 IC50 (μM): 0.435; OVCAR5 IC50 (μM): 0.758; SKOV3 IC50 (μM): 0.542
(§4) Figure 2 ZC-22 suppresses proliferation of breast and ovarian cancer cells. (A) IC50 of ZC-22, Olaparib, and LY2835219 (Abemaciclib) in breast and ovarian cancer cells. Cells were treated with increasing concentrations of ZC-22, Olaparib, or LY2835219 for 6 days with replenishment of medium every 2 days. Cell proliferation was analyzed by CCK-8 assays. (B) Cell proliferation assay of breast and ovarian cancer cells with indicated treatment. MDA-MB-231 cells were treated with 2 μM Olaparib (OLA) or LY2835219 (LY-2) alone or together (OLA + LY-2) or with ZC-22 alone for 48 or 72 h. SUM-159, OVCAR5, and SKOV3 cells were treated with 0.5 μM OLA or LY-2 alone or together or with ZC-22 alone. Cell proliferation assay was analyzed by CCK-8 assays. Values are means ± SD, n = 3. ns, not significant, * p < 0.05, ** p < 0.01 and *** p < 0.001 for comparisons with the DMSO-treated group using an unpaired t-test. TEXT PRINTED IN THE PICTURE: (A) ZC-22: MDA-MB-231 IC50 (μM): 3.608; SUM-159 IC50 (μM): 0.435; OVCAR5 IC50 (μM): 0.758; SKOV3 IC50 (μM): 0.542 | (A) LY2835219: MDA-MB-231 IC50 (μM): 11.28; SUM-159 IC50 (μM): 0.664; OVCAR5 IC50 (μM): 9.791; SKOV3 IC50 (μM): 1.158 | (A) Olaparib: MDA-MB-231 IC50 (μM): 32.13; SUM-159 IC50 (μM): 19.29; OVCAR5 IC50 (μM): 30.51; SKOV3 IC50 (μM): >50

OVCAR5 cells = conditions: Homo sapiens, OVCAR-5, 6 days, medium replenished every 2 days
Procedure: as §1, §2, §3, §4

SKOV3 cells = conditions: Homo sapiens, SK-OV-3, 6 days, medium replenished every 2 days
Procedure: as §1, §2, §3, §4

SUM-159 cells = conditions: Homo sapiens, SUM159, 6 days, medium replenished every 2 days
Procedure: as §1, §2, §3, §4

SMILES	IC50 (MDA-MB-231 cells)	IC50 (OVCAR5 cells)	IC50 (SKOV3 cells)	IC50 (SUM-159 cells)
CCN1CCN(Cc2ccc(Nc3ncc(F)c(-c4cc(F)c5nc(C)n(C(C)C)c5c4)n3)nc2)CC1 [LY2835219, Abemaciclib, reference compound]	11300 nM	9790 nM	1160 nM	664 nM
Cc1nc2c(F)cc(-c3nc(Nc4ccc(N5CCN(C(=O)c6cc(Cc7n[nH]c(=O)c8ccccc78)ccc6F)CC5)cn4)ncc3F)cc2n1C(C)C [ZC-22, 4-(4-fluoro-3-(4-(6-((5-fluoro-4-(4-fluoro-1-isopropyl-2-methyl-1H-benzo[d]imidazole-6-yl)pyrimidin-2-yl)amino)pyridin-3-yl)piperazine-1-carbonyl)benzyl)phthalazin-1(2H)-one]	3610 nM	758 nM	542 nM	435 nM

Reference: PMC8911181, “A Novel CDK4/6 and PARP Dual Inhibitor ZC-22 Effectively Suppresses Tumor Growth and Improves the Response to Cisplatin Treatment in Breast and Ovarian Cancer” (International Journal of Molecular Sciences, 2022)
